Results taken from patent publication US8859541B2, “6-alkynylpyridines” (Boehringer Ingelheim International GmbH, priority 2012, dated 2014).

Key:
[1] = biological target: T1, XIAP BIR3 (Homo sapiens, UniProt P98170); assay: XIAP BIR3 binding assay (DELFIA), displacement of SMAC peptide; details: GST-fusion BIR3 domain (aa 241 to 356) 10 nM, SMAC peptide 10 nM; activity of the (S)-isomers
T1 construct: covering amino acids 241 to 356; XIAP BIR3; made in house; host or cells: E. coli
How it was run: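 Each BIR3 domain (10 nM) incubated with biotinylated N-terminal SMAC peptide (10 nM) and compound for 1 h at room temp in Tris/NaCl buffer with BSA, DTT and Triton X-100. Captured on streptavidin plates; bound BIR3 detected by Eu-labelled anti-GST time-resolved fluorescence, giving IC50 values.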

[2] = biological target: T2, cIAP1 BIR3 (Homo sapiens, UniProt Q13490); assay: cIAP1 BIR3 binding assay (DELFIA), displacement of SMAC peptide; details: GST-fusion BIR3 domain (aa 256 to 363) 10 nM, SMAC peptide 10 nM; activity of the (S)-isomers
T2 construct: covering amino acids 256 to 363; cIAP1 BIR3; made in house; host or cells: E. coli
T2 sequence (Q13490 256-363): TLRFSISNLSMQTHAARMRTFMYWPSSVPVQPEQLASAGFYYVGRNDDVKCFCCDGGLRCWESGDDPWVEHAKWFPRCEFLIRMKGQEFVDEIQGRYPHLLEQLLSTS
Description: Biological Methods XIAP BIR3 and cIAP1 BIR3 Binding Assays (DELFIA)
Peptide […]-Lys(Biotin), representing the N-terminus of mature human SMAC (SMAC peptide), was used as interaction partner in the protein-peptide interaction assay.
BIR3 domains (10 nM) were incubated with SMAC peptide (10 nM) in Assay Buffer (50 mM Tris, 120 mM NaCl, 0.1% BSA, 1 mM DTT, 0.05% TritonX100) for one hour at room temperature in the presence of inhibitiory compounds. The assay mixture was transferred to a strepatvidin coated plate and incubated for one hour at room temperature to allow binding of the biotinylated peptide and associated BIR3 domains to the plate. After several washing steps Eu labeled anti-GST antibody (e.g. Perkin Elmer DELFIA Eu-N1-antiGST AD0250) was added to detect BIR3 domain-SMAC peptide interactions according to Perkin Elmer's instructions. […] Time resolved Europium fluoresecence was measured in a Wallac Victor using Standard assay settings.
DELFIA assay results were plotted against compound concentrations and Software GraphPad Prizm was used to calculate half maximal inhibitory concentrations (IC50 values).

T1 sequence (P98170 241-356): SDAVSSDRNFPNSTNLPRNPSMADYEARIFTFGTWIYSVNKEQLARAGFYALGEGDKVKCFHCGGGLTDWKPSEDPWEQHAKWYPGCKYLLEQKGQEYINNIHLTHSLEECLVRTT

IC50 [1] [nM] | IC50 [2] [nM] | SMILES
228 | 1 | CNC(C)C(=O)Nc1ccc(-c2c(C)nc3ccccn23)c(C#Cc2ccc3c(c2)CN(C)C3=O)n1 (centres unmarked) [Example 31, 2-(methylamino)-N-[5-(2-methylimidazo[1,2-a]pyridin-3-yl)-6-[2-(2-methyl-1-oxo-3H-isoindol-5-yl)ethynyl]pyridin-2-yl]propanamide]
277 | 1 | CNC(C)C(=O)Nc1ccc(-c2c(C)nc3ccccn23)c(C#Cc2ccc3c(c2)OCC(=O)N3C)n1 (centres unmarked) [Example 33, 2-(methylamino)-N-[5-(2-methylimidazo[1,2-a]pyridin-3-yl)-6-[2-(4-methyl-3-oxo-1,4-benzoxazin-7-yl)ethynyl]-pyridin-2-yl]propanamide]
279 | 1 | CNC(C)C(=O)Nc1ccc(-c2c(C)nc3ccccn23)c(C#Cc2ccc(-c3ccon3)cc2)n1 (centres unmarked) [Example 34, 2-(methylamino)-N-[5-(2-methylimidazo[1,2-a]pyridin-3-yl)-6-[2-[4-(1,2-oxazol-3-yl)-phenyl]ethynyl]pyridin-2-yl]-propanamide]
1480 | 1 | CNC(C)C(=O)Nc1ccc(-c2c(C)nc(N3CCOCC3)nc2C)c(C#Cc2ccc3c(ccc(=O)n3C)c2)n1 (centres unmarked) [Example 35, N-[5-(4,6-dimethyl-2-morpholin-4-ylpyrimidin-5-yl)-6-[2-(1-methyl-2-oxoquinolin-6-yl)ethynyl]pyridin-2-yl]-2-(methylamino)propanamide]
112 | 1 | CNC(C)C(=O)Nc1ccc(-c2c(C)nc3ccccn23)c(C#Cc2ccc(-c3cccnc3)cc2)n1 (centres unmarked) [Example 36, 2-(methylamino)-N-[5-(2-methylimidazo[1,2-a]pyridin-3-yl)-6-[2-(4-pyridin-3-ylphenyl)-ethynyl]pyridin-2-yl]propan-amide]
166 | 1 | CNC(C)C(=O)Nc1ccc(-c2c(C)nc3ccccn23)c(C#Cc2ccc(-n3cncn3)cc2)n1 (centres unmarked) [Example 37, 2-(methylamino)-N-[5-(2-methylimidazo[1,2-a]pyridin-3-yl)-6-[2-[4-(1,2,4-triazol-1-yl)-phenyl]ethynyl]pyridin-2-yl]-propanamide]
87 | 1 | CNC(C)C(=O)Nc1ccc(-c2c(-c3ccncc3)nc3cc(C)ccn23)c(C#Cc2ccc(Cl)c(Cl)c2)n1 (centres unmarked) [Example 39, N-[6-[2-(3,4-dichlorophenyl)-ethynyl)-5-(7-methyl-2-pyridin-4-ylimidazo[1,2-a]pyridin-3-yl)-pyridin-2-yl]-2-(methylamino)-propanamide]
123 | 1 | CNC(C)C(=O)Nc1ccc(-c2c(C)nc3ccccn23)c(C#Cc2ccc(C#N)c(Cl)c2)n1 (centres unmarked) [Example 41, N-[6-[2-(3-chloro-4-cyanophenyl)ethynyl]-5-(2-methylimidazo[1,2-a]pyridin-3-yl)pyridin-2-yl]-2-(methyl-amino)propanamide]
94 | 1 | CNC(C)C(=O)Nc1ccc(-c2c(C)nc3ccccn23)c(C#Cc2ccc3ncsc3c2)n1 (centres unmarked) [Example 42, N-[6-[2-(1,3-benzothiazol-6-yl)-ethynyl]-5-(2-methyl-imidazo[1,2-a]pyridin-3-yl)-pyridin-2-yl]-2-(methylamino)-propanamide]
136 | 1 | CNC(C)C(=O)Nc1ccc(-c2c(C)nc3ccccn23)c(C#Cc2ccc(-c3cnco3)cc2)n1 (centres unmarked) [Example 44, 2-(methylamino)-N-[5-(2-methylimidazo[1,2-a]pyridin-3-yl)-6-[2-[4-(1,3-oxazol-5-yl)-phenyl]ethynyl]pyridin-2-yl]-propanamide]
431 | 2 | CNC(C)C(=O)Nc1ccc(-c2c(C)ncnc2C)c(C#Cc2ccc3cnccc3c2)n1 (centres unmarked) [Example 45, N-[5-(4,6-dimethylpyrimidin-5-yl)-6-(2-isoquinolin-6-yl-ethynyl)pyridin-2-yl]-2-(methyl-amino)propanamide]
145 | 1 | CNC(C)C(=O)Nc1ccc(-c2c(C)nc3cc(Cl)ccn23)c(C#Cc2ccc3ncccc3c2)n1 (centres unmarked) [Example 46, N-[5-(7-chloro-2-methyl-imidazo[1,2-a]pyridin-3-yl)-6-(2-quinolin-6-ylethynyl)pyridin-2-yl]-2-(methylamino)propan-amide]
180 | 1 | CNC(C)C(=O)Nc1ccc(-c2c(C)nc3cc(F)ccn23)c(C#Cc2ccc3ncccc3c2)n1 (centres unmarked) [Example 47, N-[5-(7-fluoro-2-methyl-imidazo[1,2-a]pyridin-3-yl)-6-(2-quinolin-6-ylethynyl)pyridin-2-yl]-2-(methylamino)propan-amide]
212 | 1 | CNC(C)C(=O)Nc1ccc(-c2c(C)nc3ccccn23)c(C#Cc2ccc3nccn3c2)n1 (centres unmarked) [Example 48, N-[6-(2-imidazo[1,2-a]pyridin-6-ylethynyl)-5-(2-methyl-imidazo[1,2-a]pyridin-3-yl)-pyridin-2-yl]-2-(methylamino)-propanamide]
107 | 1 | CNC(C)C(=O)Nc1ccc(-c2c(C)nc3ccccn23)c(C#Cc2ccc3cnn(C)c3c2)n1 (centres unmarked) [Example 49, 2-(methylamino)-N-[5-(2-methylimidazo[1,2-a]pyridin-3-yl)-6-[2-(1-methylindazol-6-yl)-ethynyl]pyridin-2-yl]propan-amide]
95 | 1 | CNC(C)C(=O)Nc1ccc(-c2c(C)nc3ccccn23)c(C#Cc2cc3ccncc3s2)n1 (centres unmarked) [Example 50, 2-(methylamino)-N-[5-(2-methylimidazo[1,2-a]pyridin-3-yl)-6-(2-thieno[2,3-c]pyridin-2-ylethynyl)pyridin-2-yl]propan-amide]
145 | 1 | CNC(C)C(=O)Nc1ccc(-c2c(C)nc3ccccn23)c(C#Cc2ccc3occc3c2)n1 (centres unmarked) [Example 52, N-[6-[2-(1-benzofuran-5-yl)-ethynyl)-5-(2-methyl-imidazo[1,2-a]pyridin-3-yl)-pyridin-2-yl]-2-(methylamino)-propanamide]
116 | 1 | CNC(C)C(=O)Nc1ccc(-c2c(C)nc3ccccn23)c(C#Cc2ccc3c(c2)COC3)n1 (centres unmarked) [Example 53, N-[6-[2-(1,3-dihydro-2-benzofuran-5-yl)ethynyl]-5-(2-methylimidazo[1,2-a]pyridin-3-yl)pyridin-2-yl]-2-(methyl-amino)propanamide]
863 | 1 | CNC(C)C(=O)Nc1ccc(-c2c(C)nc(N3CCOCC3)nc2C)c(C#Cc2ccc3ncccc3c2)n1 (centres unmarked) [Example 54, N-[5-(4,6-dimethyl-2-morpholin-4-ylpyrimidin-5-yl)-6-(2-quinolin-6-ylethynyl)-pyridin-2-yl]-2-(methylamino)-propanamide]
224 | 5 | CNC(C)C(=O)Nc1ccc(-c2c(C)nc3ccccn23)c(C#Cc2nn(C)c3ncccc23)n1 (centres unmarked) [Example 58, 2-(methylamino)-N-[5-(2-methylimidazo[1,2-a]pyridin-3-yl)-6-[2-(1-methylpyrazolo[3,4-b]pyridin-3-yl)ethynyl]pyridin-2-yl]propanamide]
184 | 2 | CNC(C)C(=O)Nc1ccc(-c2c(C)nc3ccccn23)c(C#Cc2cnc3ccccn23)n1 (centres unmarked) [Example 60, N-[6-(2-imidazo[1,2-a]pyridin-3-ylethynyl)-5-(2-methyl-imidazo[1,2-a]pyridin-3-yl)-pyridin-2-yl]-2-(methylamino)-propanamide]
187 | 5 | CNC(C)C(=O)Nc1ccc(-c2c(C)nc3ccccn23)c(C#Cc2nn(C)c3ccccc23)n1 (centres unmarked) [Example 61, 2-(methylamino)-N-[5-(2-methylimidazo[1,2-a]pyridin-3-yl)-6-[2-(1-methylindazol-3-yl)-ethynyl]pyridin-2-yl]propan-amide]
70 | 1 | CNC(C)C(=O)Nc1ccc(-c2c(C)nc3ccccn23)c(C#Cc2ccc(C(N)=O)cc2)n1 (centres unmarked) [Example 63, 4-[2-[6-[[2-(methylamino)-propanoyl]amino]-3-(2-methyl-imidazo[1,2-a]pyridin-3-yl)-pyridin-2-yl]ethynyl]benzamide]
152 | 1 | CNC(C)C(=O)Nc1ccc(-c2c(-c3ccncc3)nc3cc(C)ccn23)c(C#Cc2ccc3nc(C)ccc3c2)n1 (centres unmarked) [Example 64, 2-(methylamino)-N-[5-(7-methyl-2-pyridin-4-ylimidazo[1,2-a]pyridin-3-yl)-6-[2-(2-methylquinolin-6-yl)-ethynyl]pyridin-2-yl]propan-amide]
252 | 1 | CNC(C)C(=O)Nc1ccc(-c2c(C)nc3ccccn23)c(C#Cc2ccc3c(c2)CC(=O)N3C)n1 (centres unmarked) [Example 66, 2-(methylamino)-N-[5-(2-methyliniidazo[1,2-a]pyridin-3-yl)-6-[2-(1-methyl-2-oxo-3H-indol-5-yl)ethynyl]pyridin-2-yl]-propanamide]
